Laboratory results: patent publication US11180462B2, “Microbiocidal oxadiazole derivatives” (SYNGENTA PARTICIPATIONS AG, priority 2015, dated 2021)

Key:
[1] = tested on: Puccinia recondita f. Sp. Tritici; assay: Fungicidal activity against Puccinia recondita f. sp. tritici / wheat / leaf disc curative (brown rust); type: in vivo; settings: foliar, 24 h, 200 ppm in the applied formulation, wheat leaf segments, curative (applied 1 day after inoculation), compared to untreated control leaf disks, read-out: disease control
Outline: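 Inoculate cv. Kanzler segments on agar; hold dark, 19° C, 75% RH. Spray diluted formulated compound at day 1. Incubate 12 h light/12 h dark, same temperature and humidity; score % control vs untreated 6–8 days later.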

[2] = tested on: Glomerella lagenarium (Colletotrichum lagenarium); assay: Fungicidal activity against Glomerella lagenarium (Colletotrichum lagenarium) liquid culture / cucumber / preventative (anthracnose); type: cell-based; settings: Colletotrichum orbiculare; 20 ppm in the applied formulation; liquid culture (PDB), growth inhibition measured photometrically after 3 to 4 days; compared to untreated control; read-out: disease control
Outline: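 Photometric read-out of fungal growth after 2–7 days, expressed as percent antifungal activity versus untreated check. Cryo-stored conidia in PDB; compound at 20 ppm; dark, 24 °C, 96% RH.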

[3] = tested on: Puccinia recondita f. Sp. Tritici; assay: Fungicidal activity against Puccinia recondita f. sp. tritici / wheat / leaf disc preventative (brown rust); type: in vivo; settings: foliar, 200 ppm in the applied formulation, wheat leaf segments, preventative, compared to untreated control leaf disks, read-out: disease control
Outline: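 Preventative leaf-segment test, wheat cv. Kanzler on water agar. Spray compound at 200 ppm, inoculate with spores 1 day later; 19° C., 75% rh, 12/12 h light. Read-out: % disease control vs untreated, 7 to 9 days after application.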

Phakopsora Pachyrhizi = assay: Fungicidal activity against Phakopsora pachyrhizi / soybean / leaf disc preventative (Asian soybean rust); type: in vivo; settings: foliar, 200 ppm in the applied formulation, soybean leaf disks, compared to untreated control leaf disks, read-out: disease control
Outline: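 Preventative soybean leaf-disc test: discs on water agar sprayed with diluted formulated compound, inoculated one day later with spores on the lower surface. Held 24–36 h dark at 20°C, 75% rh, then 12 h light/day; percent disease control versus untreated discs scored 12–14 days after application.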

CC1(C(=O)N(Cc2ccc(-c3noc(C(F)(F)F)n3)cc2)CC2CC2)COC1 [Compound 1.235, N-(cyclopropylmethyl)-3-methyl-N-[[4-[5-(trifluoromethyl)-1,2,4-oxadiazol-3-yl]phenyl]methyl]-oxetane-3-carboxamide]
≥ 80%: pest or weed control at 200 ppm [1] | inhibition of growth at 20 ppm [2] | pest or weed control at 200 ppm [3] | pest or weed control at 200 ppm (Phakopsora Pachyrhizi)

O=C(C1CCCO1)N(Cc1ccc(-c2noc(C(F)(F)F)n2)cc1)CC1CC1 (stereo not drawn) [Compound 1.242, N-(cyclopropylmethyl)-N-[[4-[5-(trifluoromethyl)-1,2,4-oxadiazol-3-yl]phenyl]methyl]-tetrahydrofuran-2-carboxamide]
≥ 80%: pest or weed control at 200 ppm [1] | inhibition of growth at 20 ppm [2] | pest or weed control at 200 ppm [3] | pest or weed control at 200 ppm (Phakopsora Pachyrhizi)

N#CCC(=O)N(Cc1ccc(-c2noc(C(F)(F)F)n2)cc1)CC1CC1 [Compound 1.243, 2-cyano-N-(cyclopropylmethyl)-N-[[4-[5-(trifluoromethyl)-1,2,4-oxadiazol-3-yl]phenyl]methyl]-acetamide]
≥ 80%: pest or weed control at 200 ppm [1] | inhibition of growth at 20 ppm [2] | pest or weed control at 200 ppm [3] | pest or weed control at 200 ppm (Phakopsora Pachyrhizi)

N#CC1(C(=O)N(Cc2ccc(-c3noc(C(F)(F)F)n3)cc2)CC2CC2)CC1 [Compound 1.244, 1-cyano-N-(cyclopropylmethyl)-N-[[4-[5-(trifluoromethyl)-1,2,4-oxadiazol-3-yl]phenyl]methyl]-cyclopropane-carboxamide]
≥ 80%: pest or weed control at 200 ppm [1] | inhibition of growth at 20 ppm [2] | pest or weed control at 200 ppm [3] | pest or weed control at 200 ppm (Phakopsora Pachyrhizi)

COC(C)C(=O)N(Cc1ccc(-c2noc(C(F)(F)F)n2)cc1)CC1CC1 (stereo not drawn) [Compound 1.245, N-(cyclopropylmethyl)-2-methoxy-N-[[4-[5-(trifluoromethyl)-1,2,4-oxadiazol-3-yl]phenyl]methyl]-propanamide]
≥ 80%: pest or weed control at 200 ppm [1] | inhibition of growth at 20 ppm [2] | pest or weed control at 200 ppm [3] | pest or weed control at 200 ppm (Phakopsora Pachyrhizi)

COCC(=O)N(OC)C(C)c1ccc(-c2noc(C(F)(F)F)n2)cc1 (stereo not drawn) [Compound 1.253, N,2-dimethoxy-N-(1-[4-[5-(trifluoromethyl)-1,2,4-oxadiazol-3-yl]phenyl]ethyl]-acetamide]
≥ 80%: pest or weed control at 200 ppm [1] | inhibition of growth at 20 ppm [2] | pest or weed control at 200 ppm [3] | pest or weed control at 200 ppm (Phakopsora Pachyrhizi)

CCOCC(=O)N(OC)C(C)c1ccc(-c2noc(C(F)(F)F)n2)cc1 (stereo not drawn) [Compound 1.264, 2-ethoxy-N-methoxy-N-[1-[4-[5-(trifluoromethyl)-1,2,4-oxadiazol-3-yl]phenyl]ethyl]-acetamide]
≥ 80%: pest or weed control at 200 ppm [1] | inhibition of growth at 20 ppm [2] | pest or weed control at 200 ppm [3] | pest or weed control at 200 ppm (Phakopsora Pachyrhizi)

CON(C(=O)C1CCCO1)C(C)c1ccc(-c2noc(C(F)(F)F)n2)cc1 (stereo not drawn) [Compound 1.273, N-methoxy-N-[1-[4-[5-(trifluoromethyl)-1,2,4-oxadiazol-3-yl]phenyl]ethyl]-tetrahydrofuran-2-carboxamide]
≥ 80%: pest or weed control at 200 ppm [1] | inhibition of growth at 20 ppm [2] | pest or weed control at 200 ppm [3] | pest or weed control at 200 ppm (Phakopsora Pachyrhizi)

CON(C(=O)C1CC1F)C(C)c1ccc(-c2noc(C(F)(F)F)n2)cc1 (stereo not drawn) [Compound 1.275, 2-fluoroN-methoxy-N-[1-[4-[5-(trifluoromethyl)-1,2,4-oxadiazol-3-yl]phenyl]ethyl]-cyclopropane-carboxamide]
≥ 80%: pest or weed control at 200 ppm [1] | inhibition of growth at 20 ppm [2] | pest or weed control at 200 ppm [3] | pest or weed control at 200 ppm (Phakopsora Pachyrhizi)

CCCON(Cc1ccc(-c2noc(C(F)(F)F)n2)cc1)C(=O)C1(C)COC1 [Compound 1.309, 3-methyl-N-propoxy-N-[[4-[5-(trifluoromethyl)-1,2,4-oxadiazol-3-yl]phenyl]methyl]-oxetane-3-carboxamide]
≥ 80%: pest or weed control at 200 ppm [1] | inhibition of growth at 20 ppm [2] | pest or weed control at 200 ppm [3] | pest or weed control at 200 ppm (Phakopsora Pachyrhizi)

CCCON(Cc1ccc(-c2noc(C(F)(F)F)n2)cc1)C(=O)C1CCCN1C(C)=O (stereo not drawn) [Compound 1.314, 1-acetyl-N-propoxy-N-[[4-[5-(trifluoromethyl)-1,2,4-oxadiazol-3-yl]phenyl]methyl]-pyrrolidine-2-carboxamide]
≥ 80%: pest or weed control at 200 ppm [1] | inhibition of growth at 20 ppm [2] | pest or weed control at 200 ppm [3] | pest or weed control at 200 ppm (Phakopsora Pachyrhizi)

CCCON(Cc1ccc(-c2noc(C(F)(F)F)n2)cc1)C(=O)C1CC1F (stereo not drawn) [Compound 1.315, 2-fluoro-N-propoxy-N-[[4-[5-(trifluoromethyl)-1,2,4-oxadiazol-3-yl]phenyl]methyl]-cyclopropane-carboxamide]
≥ 80%: pest or weed control at 200 ppm [1] | inhibition of growth at 20 ppm [2] | pest or weed control at 200 ppm [3] | pest or weed control at 200 ppm (Phakopsora Pachyrhizi)

CCCON(Cc1ccc(-c2noc(C(F)(F)F)n2)cc1)C(=O)C(C)OC (stereo not drawn) [Compound 1.316, 2-methoxy-N-propoxy-N-[[4-[5-(trifluoromethyl)-1,2,4-oxadiazol-3-yl]phenyl]methyl]-propanamide]
≥ 80%: pest or weed control at 200 ppm [1] | inhibition of growth at 20 ppm [2] | pest or weed control at 200 ppm [3] | pest or weed control at 200 ppm (Phakopsora Pachyrhizi)

COCCN(Cc1ccc(-c2noc(C(F)(F)F)n2)cc1)C(=O)C1CCCCO1 (stereo not drawn) [Compound 1.324, N-(2-methoxyethyl)-N-[[4-[5-(trifluoromethyl)-1,2,4-oxadiazol-3-yl]phenyl]methyl]-tetrahydropyran-2-carboxamide]
≥ 80%: pest or weed control at 200 ppm [1] | inhibition of growth at 20 ppm [2] | pest or weed control at 200 ppm [3] | pest or weed control at 200 ppm (Phakopsora Pachyrhizi)

COCCN(Cc1ccc(-c2noc(C(F)(F)F)n2)cc1)C(=O)C(C)C [Compound 1.325, N-(2-methoxyethyl)-2-methyl-N-[[4-[5-(trifluoromethyl)-1,2,4-oxadiazol-3-yl]phenyl]methyl]-propanamide]
≥ 80%: pest or weed control at 200 ppm [1] | inhibition of growth at 20 ppm [2] | pest or weed control at 200 ppm [3] | pest or weed control at 200 ppm (Phakopsora Pachyrhizi)

COCCN(Cc1ccc(-c2noc(C(F)(F)F)n2)cc1)C(=O)C1CC1(F)F (stereo not drawn) [Compound 1.327, 2,2-difluoro-N-(2-methoxyethyl)-N-[[4-[5-(trifluoromethyl)-1,2,4-oxadiazol-3-yl]phenyl]methyl]-cyclopropane-carboxamide]
≥ 80%: pest or weed control at 200 ppm [1] | inhibition of growth at 20 ppm [2] | pest or weed control at 200 ppm [3] | pest or weed control at 200 ppm (Phakopsora Pachyrhizi)

CCCC(=O)N(CCOC)Cc1ccc(-c2noc(C(F)(F)F)n2)cc1 [Compound 1.329, N-(2-methoxyethyl)-N-[[4-[5-(trifluoromethyl)-1,2,4-oxadiazol-3-yl]phenyl]methyl]-butanamide]
≥ 80%: pest or weed control at 200 ppm [1] | inhibition of growth at 20 ppm [2] | pest or weed control at 200 ppm [3] | pest or weed control at 200 ppm (Phakopsora Pachyrhizi)

COCCN(Cc1ccc(-c2noc(C(F)(F)F)n2)cc1)C(=O)CC1CC1 [Compound 1.331, 2-cyclopropyl-N-(2-methoxyethyl)-N-[[4-[5-(trifluoromethyl)-1,2,4-oxadiazol-3-yl]phenyl]methyl]-acetamide]
≥ 80%: pest or weed control at 200 ppm [1] | inhibition of growth at 20 ppm [2] | pest or weed control at 200 ppm [3] | pest or weed control at 200 ppm (Phakopsora Pachyrhizi)
